Experimental data reported in paper PMC6753678, “Fueling Open Innovation for Malaria Transmission-Blocking Drugs: Hundreds of Molecules Targeting Early Parasite Mosquito Stages” (Frontiers in Microbiology, 2019).
Where two headings read alike, the source gives them in different places.

How the values were obtained:
[1] = system: 3D7-strain P. falciparum asexual parasites; assay: P. falciparum asexual growth inhibition assay (Pf GIA); type: cell-based, Plasmodium falciparum; conditions: dose response confirmation; read-out: Pf asexual growth inhibition assays IC50
Method in brief: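 0.25% parasitemia, 2% Hct, RPMI/HEPES/hypoxanthine/5% Albumax; compound dose response, 72 h, 37°C, 5% CO2, 5% O2, 90% N2. Freeze-thaw, then LDH assay, A650. % inhibition vs chloroquine (50 μM)/DMSO, mean of 3 independent runs.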

HepG2 cells = assay: HepG2 cytotoxicity assay; conditions: for IC50: read-out: HepG2 cytotoxicity assay IC50, dose response confirmation; for Pb ODA (this manuscript) HepG2 cytoxicity: HepG2 cytotoxicity listed with the Pb ODA data set (this manuscript)
Method in brief: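 Cells at 2,500 per well in MEM with 10% fetal bovine serum and 1% NEAA were exposed to test compounds for 48 h at 37°C, 5% CO2. Viability was read by fluorescence, with percent inhibition calculated against 50 μM doxorubicin (positive) and DMSO (negative) controls.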

[2] = system: P. berghei ookinete development; conditions: for % inhibition, Replicate A / % inhibition, Replicate B: primary screen at 1 μM
[3] = HepG2 values of the three screens unified
[4] = read-out: Pb ODA IC50, this manuscript
[5] = read-out: Pb Ookinete development assay IC50, dose response confirmation
[6] = read-out: Pb ODA (this manuscript) IC50, P. berghei ookinete development assay, this manuscript
[7] = unified HepG2 value across the three screens

SMILES | IC50 [1] [nM] | HepG2 cytoxicity (Pb ODA, this manuscript) (HepG2 cells) [µM] | Unified cytotox (HepG2 cells; [3]) [µM] | IC50 (HepG2 cells) [nM] | Is compound selective in assay? Pb ODA active? ([2]; 1: YES, 0: NO) | % inhibition, Replicate A [2] [%] | % inhibition, Replicate B [2] [%] | IC50 [2, 4] [nM] | IC50 [2, 5] [nM] | Pb ODA (this manuscript) HepG2 cytoxicity (HepG2 cells) [µM] | Is compound selective in assay? Pb ODA active? [2] | IC50 [2, 6] [nM] | Unified cytotox (HepG2 cells; [7]) [µM]
Cl.c1ccc(CN2CCN(CCNc3c4ccccc4nc4ccccc34)CC2)cc1 [TCMDC-137571] | 446 | 23.99 | 23.99 | 24000 | 0 (0: NO) | 19.05 | 55.37 | 2890 | 2900 |  |  |  | 
CC(C)N1CCN(CCCCNc2c3ccccc3nc3ccccc23)CC1.Cl [TCMDC-137573] | 10 | 5.75 | 5.75 | 5750 | 0 (0: NO) | 42.86 | 78.36 | 2890 | 2890 |  |  |  | 
CCCN1CCN(CCCCNc2c3ccccc3nc3ccccc23)CC1.Cl [TCMDC-137576] | 238 | 5.37 | 5.37 | 5370 | 0 (0: NO) | 35.45 | 63.99 | 2330 | 2320 |  |  |  | 
CCOC(=O)N1CCN(CCCCNc2c3ccc(Cl)cc3nc3ccc(OC)cc23)CC1.Cl [TCMDC-137579] | 30 |  |  | 5500 |  | 26.46 | 54.23 |  | 4490 | 5.50 | 0 (key: 1: YES; 0: NO) | 4490 | 
COc1ccc2nc3cc(Cl)ccc3c(NCCCN3CCNCC3)c2c1.Cl [TCMDC-137580] | 56 |  |  | 14800 |  | 53.44 | 35.84 |  | 1680 | 14.79 | 0 (key: 1: YES; 0: NO) | 1680 | 
Cc1nc2nc(N)nc(N)c2c(C)c1Cc1ccc(N)cc1.Cl [TCMDC-137633] | 287 |  |  | 80 |  | 2.48 | 52.30 |  | 6210 | 0.08 | 0 (key: 1: YES; 0: NO) | 6210 | 
COc1ccc2nc3cc(Cl)ccc3c(NCc3ccccc3)c2c1.Cl [TCMDC-137663] | 424 |  |  | 41700 |  | 39.90 | 59.60 |  | 1630 | 41.69 | 1 (key: 1: YES; 0: NO) | 1630 | 
Cc1nc2nc(N)nc(N)c2c(C)c1Cc1ccccc1.Cl [TCMDC-137670] | 169 |  |  | 30 |  | 51.61 | 57.72 |  | 3020 | 0.03 | 0 (key: 1: YES; 0: NO) | 3020 | 
Nc1nc(N)c2c(ccc3c2ncn3Cc2ccccc2)n1 [TCMDC-137749] | 244 |  |  | 1150 | 0 (0: NO) | 48.44 | 74.97 | 4450 | 4450 |  |  |  | 1.15
CCC1=C[C@@H]2CN(C1)Cc1c([nH]c3ccccc13)[C@@](C(=O)OC)(c1cc3c(cc1OC)N(C)[C@H]1[C@@](O)(C(=O)OC)[C@H](O)[C@]4(CC)C=CCN5CC[C@]31[C@@H]54)C2.O=S(=O)(O)O [TCMDC-137769] | 213 |  |  | 41200 | 1 (1: YES) | 141.80 | 104.79 | 360 | 365 |  |  |  | 41.21
Nc1nc(N)c2c(ccc3c2ccn3Cc2ccc3c(c2)OCO3)n1 [TCMDC-137808] | < 0.2 | 0.0324 | 0.0324 | 32.4 | 0 (0: NO) | 57.79 | 75.32 | 450 | 447 |  |  |  | 
COc1cccc(Cn2ccc3c4c(N)nc(N)nc4ccc32)c1 [TCMDC-137811] | < 0.2 | 0.0129 | 0.0129 | 12.9 | 0 (0: NO) | 65.46 | 68.96 | 1560 | 1560 |  |  |  | 
Cc1ccccc1Cn1ccc2c3c(N)nc(N)nc3ccc21 [TCMDC-137812] | < 0.3 | 0.00828 | 0.00828 | 8.28 | 0 (0: NO) | 41.40 | 62.61 | 430 | 429 |  |  |  | 
CCN(C)C(=O)n1ncc2c3c(N)nc(N)nc3ccc21 [TCMDC-137828] | 86 |  |  | 220 |  | 30.59 | 54.76 |  | 2560 | 0.22 | 0 (key: 1: YES; 0: NO) | 2560 | 
CCC(C)(C)c1ccc2nc(N)nc(N)c2c1C [TCMDC-137829] | 1.07 |  |  | 1.7 | 0 (0: NO) | 40.64 | 76.04 | 3100 | 3100 |  |  |  | 0.0017
CCc1cc2c3c(N)nc(N)nc3ccc2n1CC [TCMDC-137851] | 2.53 | 0.0224 | 0.0224 | 22.4 | 0 (0: NO) | 53.59 | 40.48 | 990 | 986 |  |  |  | 
Cl.Nc1nc(N)c2c(ccc3c2cnn3S(=O)(=O)N2CCCC2)n1 [TCMDC-137852] | 3.8 |  |  | 4.12 |  | 40.87 | 51.00 |  | 1530 | 0.00412 | 0 (key: 1: YES; 0: NO) |  | 
Cl.Nc1nc(N)c2c(ccc3nn(S(=O)(=O)N4CCCC4)cc32)n1 [TCMDC-137854] | 144 |  |  | 120 |  | 55.32 | 26.78 |  | 5300 | 0.12 | 0 (key: 1: YES; 0: NO) | 5300 | 
CCn1c(C(C)C)cc2c3c(N)nc(N)nc3ccc21 [TCMDC-137856] | 6.37 | 0.00302 | 0.00302 | 3.02 | 0 (0: NO) | 104.91 | 74.96 | 590 | 588 |  |  |  | 
Cc1cc2c3c(N)nc(N)nc3ccc2n1C(C)C [TCMDC-137864] | 4 | 0.0331 | 0.0331 | 33.1 | 0 (0: NO) | 66.13 | 75.37 | 2320 | 2320 |  |  |  | 
Nc1nc(N)c2c(Cl)c(N3CCOCC3)ccc2n1 [TCMDC-137868] | 72 |  |  | 8.61 | 0 (0: NO) | 53.12 | 26.39 | 3800 | 3800 |  |  |  | 0.00861
CCC(C(C)C)n1ccc2c3c(N)nc(N)nc3ccc21 (stereo not shown) [TCMDC-137872] | < 0.2 | 0.0017 | 0.0017 | 1.7 | 0 (0: NO) | 63.79 | 69.72 | 470 | 474 |  |  |  | 
Cl.OCC(CO)(CO)NCc1ccc2c3c(cccc13)-c1ccccc1-2 [TCMDC-137877] | 1970 |  |  | 9550 | 1 (1: YES) | 56.61 | 22.47 | 560 | 564 |  |  |  | 9.55
CCCC(CCC)n1ccc2c3c(N)nc(N)nc3ccc21.Cl [TCMDC-137949] | < 0.2 | 0.0017 | 0.0017 | 1.7 | 0 (0: NO) | 42.83 | 73.31 | 2780 | 2780 |  |  |  | 
Nc1nc(N)c2c(ccc3c2ccn3CCCCO)n1 [TCMDC-137959] | 61 | 0.0759 | 0.0759 | 75.9 | 0 (0: NO) | 70.70 | 40.44 | 3090 | 3090 |  |  |  | 
